Assay results taken from patent US6022893A, “Hydroxamic acid derivatives” (ONO Pharmaceutical Co., Ltd., priority 1995, dated 2000).

How the values were obtained:
gelatinase A [1] = target: T1, gelatinase A (Homo sapiens, UniProt P08253); assay: Inhibitory activity against gelatinase A (FITC-labeled gelatin substrate); type: biochemical; conditions: incubated 2 hours at 37° C., APMA-activated progelatinase A from human normal skin dermal fibroblasts
T1 construct: endogenous in cells; host or cells: human normal skin dermal fibroblasts (HNDF); progelatinase A purified from them
T1 sequence (P08253 110-660): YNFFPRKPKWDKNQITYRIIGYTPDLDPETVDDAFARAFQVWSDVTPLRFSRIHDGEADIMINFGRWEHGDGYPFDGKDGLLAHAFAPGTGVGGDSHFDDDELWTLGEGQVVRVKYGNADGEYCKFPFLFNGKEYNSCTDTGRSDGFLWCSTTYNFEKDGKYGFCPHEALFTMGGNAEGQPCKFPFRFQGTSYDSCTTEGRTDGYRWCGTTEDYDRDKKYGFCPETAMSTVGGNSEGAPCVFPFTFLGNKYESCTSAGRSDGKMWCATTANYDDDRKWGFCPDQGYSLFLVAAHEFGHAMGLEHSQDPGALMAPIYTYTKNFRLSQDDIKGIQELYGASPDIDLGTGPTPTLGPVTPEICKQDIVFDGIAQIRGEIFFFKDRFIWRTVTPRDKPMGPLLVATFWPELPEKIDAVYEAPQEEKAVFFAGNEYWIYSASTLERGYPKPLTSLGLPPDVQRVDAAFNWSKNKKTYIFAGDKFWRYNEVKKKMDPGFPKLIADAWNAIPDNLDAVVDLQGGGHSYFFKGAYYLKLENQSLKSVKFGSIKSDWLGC
Experimental: (§1) The potency of inhibitory activity against each matrix metalloproteinase is confirmed as below. The IC50 value for inhibition of gelatinase A activity is determined as follows.
(§2) (1) Inhibitory activity against gelatinase A
(§3) Progelatinase A (7 μl; in assay buffer (90 μl )) was purified from human normal skin dermal fibroblasts (HNDF). It was activated by the addition of 10 mM of p-aminophenylmercuric acetate (APMA) (10 μl) for 1 hour at 37° C.
The solution of activated gelatinase A (7 μl tube, 98μl) was mixed with various concentrations of the test compound or dimethylsulfoxide (2 μl) and gelatin (100 μl) labeled with 0.05% fluorescein isothiocyanate (FITC) and incubated for 2 hours at 37° C. The reaction was terminated by the addition of 0.1 M Tris-HCI (pH9.5) containing 94.7% ethanol (750 μl). The mixture was stirred and then allowed to stand for 30 minutes at 0° C. The mixture was centrifuged for 30 minutes at 900×g. The IC50 was determined by measuring the fluorescent intensity in the supernatant (Ex=495 nm, and Em=520 nm). The results are shown in Table 24 (Example number 2 and 2(3)).

gelatinase A [2] = target: T1, gelatinase A; assay: Inhibitory activity against gelatinase A (synthetic substrate MOCAc-Pro-Leu-Gly-Leu-A2 pr(Dnp)-Ala-Arg-NH2); type: biochemical; conditions: final 13.5 μM, incubated 20 minutes at 37° C., activated gelatinase A
Experimental: as §1, §2, §3
Alternatively the inhibitory activity of the test compound was measured by using the synthetic substrate (MOCAc-Pro-Leu-Gly-Leu-A2 pr(Dnp)-Ala-Arg-NH2). The substrate solution (890 μl; the final concentration was 13.5 μM) was mixed with various concentrations of the test compound or dimethylsulfoxide ([…]) for 5 minutes at 37° C. The activated gelatinase A (7 μl/tube, 100 μl) was added to the reaction mixture and further incubated for 20 minutes at 37° C. 0.1 M sodium acetate buffer (2 ml; pH4.0) was added into the mixture. The IC50 was determined by measuring the fluorescent intensity (Ex=328 nm, and Em=393 nm) in this solution. The results are shown in Table 24 (Example number 2(4) and 3(2)).

IC50 (gelatinase A [1]) [nM] | IC50 (gelatinase A [2]) [nM] | Compound
1 |  | CCCCCc1ccc(C(=O)Nc2ccc(S(=O)(=O)N[C@H](Cc3ccccc3)C(=O)NO)cc2)cc1 [Example 2(3), N-Hydroxy-N-[N'-[[4-(4-pentylbenzoylamino)phenyl]sulfonyl]-D-phenylalanyl]amide]
 | 0.61 | Cc1ccc(C(=O)Nc2ccc(S(=O)(=O)N[C@H](Cc3c[nH]c4ccccc34)C(=O)NO)cc2)cc1 [Example 2(4), N-Hydroxy-N-[N'-[[4-(p-toluoylamino)phenyl]sulfonyl]-D-tryptophyl]amide]
 | 0.23 | C[C@@H](NS(=O)(=O)c1ccc(NC(=O)c2cccs2)cc1)C(=O)NO [Example 3(2)]
1.7 |  | Cc1ccc(C(=O)Nc2ccc(S(=O)(=O)NCC(=O)NO)cc2)cc1 [Example 2, N N-Hydroxy-N-[N'-[[4-(p-toluoylamino)phenyl]sulfonyl]glycyl]amide]
